According to US7745495B2, “Pyridine ketones with herbicidal effect” (Syngenta Crop Protection, Inc., priority 2004, dated 2010):

Tests used:
Type in all cases: in vivo
Echinochloa = experiment: Pre-emergence herbicidal action; settings: rating 10=total damage, 0=no action; for Pre-emergent Herbicidal Activity: Echinochloa: Table B3; for Pre-emergence herbicidal action: Echinochloa: 250 g/ha, after 3 weeks
Method: (§1) Monocotyledonous and dicotyledonous test plants are sown in standard soil in plastic pots. […] The test plants are then grown in a greenhouse under optimum conditions. After a test duration of 3 weeks, the test is evaluated in accordance with a scale of ten ratings (10=total damage, 0=no action). Ratings of from 10 to 7 (especially from 10 to 8) indicate good to very good herbicidal action.

Abutilon [1] = experiment: Pre-emergence herbicidal action; settings: rating 10=total damage, 0=no action; for Pre-emergent Herbicidal Activity: Abutilon: Table B3; for Pre-emergence herbicidal action: Abutilon: 250 g/ha, after 3 weeks
Method: as §1

Amaranthus = experiment: Pre-emergence herbicidal action; settings: rating 10=total damage, 0=no action; for Pre-emergent Herbicidal Activity: Amaranthus: Table B3; for Pre-emergence herbicidal action: Amaranthus: 250 g/ha, after 3 weeks
Method: as §1

Corn = experiment: Pre-emergent herbicidal activity on crop plant; settings: for Pre-emergent Herbicidal Activity: Corn: Table B3, crop plant, rating 10=total damage, 0=no action
Method: as §1
(§2) In the following Table B3, the pre-emergent herbicidal activity of compound H-14 according to the invention is compared with 4 compounds according to the prior art. All compounds are structurally identical except for the nature of the alkylene linker attached to the pyridine ring.

Soya = experiment: Pre-emergent herbicidal activity on crop plant; settings: for Pre-emergent Herbicidal Activity: Soya: Table B3, crop plant, rating 10=total damage, 0=no action
Method: as §1, §2

Setaria [2] = experiment: Pre-emergent herbicidal activity; settings: Table B3, rating 10=total damage, 0=no action
Method: as §1, §2

Brachiaria = experiment: Pre-emergent herbicidal activity; settings: Table B3, rating 10=total damage, 0=no action
Method: as §1, §2

Digitaria [3] = experiment: Pre-emergence herbicidal action; settings: 250 g/ha; after 3 weeks; rating 10=total damage, 0=no action
Method: as §1

Panicum [4] = experiment: Pre-emergence herbicidal action; settings: 250 g/ha; after 3 weeks; rating 10=total damage, 0=no action
Method: as §1

Chenopodium [5] = experiment: Pre-emergence herbicidal action; settings: 250 g/ha; after 3 weeks; rating 10=total damage, 0=no action
Method: (§3) Monocotyledonous and dicotyledonous test plants are sown in standard soil in plastic pots. Immediately after sowing, the test compounds, in the form of an aqueous suspension (prepared from a 25% wettable powder (Example F3, b) according to WO 97/34485) or in the form of an emulsion (prepared from a 25% emulsifiable concentrate (Example F1, c)), are applied by spraying a concentration corresponding to 125 g or 250 g of active ingredient/ha (500 liter of water/ha). The test plants are then grown in a greenhouse under optimum conditions. After a test duration of 3 weeks, the test is evaluated in accordance with a scale of ten ratings (10=total damage, 0=no action). Ratings of from 10 to 7 (especially from 10 to 8) indicate good to very good herbicidal action.

Stellaria [6] = experiment: Pre-emergence herbicidal action; settings: 250 g/ha; after 3 weeks; rating 10=total damage, 0=no action
Method: as §3

Chenopodium [7] = experiment: Post-emergence herbicidal action; settings: 250 g/ha; 4- to 6-leaf stage; after about 18 days; rating 10=total damage, 0=no action
Method: (§4) In a greenhouse, monocotyledonous and dicotyledonous test plants are grown in standard soil in plastic pots and at the 4- to 6-leaf stage are sprayed with an aqueous suspension of the test compounds of formula I prepared from a 25% wettable powder (Example F3, b) according to WO 97/34485) or with an emulsion of the test compounds of formula I prepared from a 25% emulsifiable concentrate (Example F1, c) according to WO 97/34485), in a concentration corresponding to 125 g or 250 g of active ingredient/ha (500 liter of water/ha). The test plants are then grown on in a greenhouse under optimum conditions. After a test duration of about 18 days, the test is evaluated in accordance with a scale of ten ratings (10=total damage, 0=no action). Ratings of from 10 to 7 (especially from 10 to 8) indicate good to very good herbicidal action.

Ipomea = experiment: Post-emergence herbicidal action; settings: 250 g/ha; 4- to 6-leaf stage; after about 18 days; rating 10=total damage, 0=no action
Method: as §4

Setaria [8] = experiment: Post-emergence herbicidal action; settings: 250 g/ha; 4- to 6-leaf stage; after about 18 days; rating 10=total damage, 0=no action
Method: as §4

Abutilon [9] = experiment: Post-emergence herbicidal action; settings: 250 g/ha; 4- to 6-leaf stage; after about 18 days; rating 10=total damage, 0=no action
Method: as §4

Sinapis = experiment: Post-emergence herbicidal action; settings: 250 g/ha; 4- to 6-leaf stage; after about 18 days; rating 10=total damage, 0=no action
Method: as §4

Digitaria [10] = experiment: Post-emergence herbicidal action; settings: 250 g/ha; 4- to 6-leaf stage; after about 18 days; rating 10=total damage, 0=no action
Method: as §4

Panicum [11] = experiment: Post-emergence herbicidal action; settings: 250 g/ha; 4- to 6-leaf stage; after about 18 days; rating 10=total damage, 0=no action
Method: as §4

Stellaria [12] = experiment: Post-emergence herbicidal action; settings: 250 g/ha; 4- to 6-leaf stage; after about 18 days; rating 10=total damage, 0=no action
Method: as §4

[13] = pre-emergent, 30 and 15 g/ha, result in words on Table B3

SMILES | Pre-emergent Herbicidal Activity: Echinochloa (Echinochloa; 30 g/ha) | Pre-emergent Herbicidal Activity: Abutilon (Abutilon [1]; 15 g/ha) | Pre-emergent Herbicidal Activity: Abutilon (Abutilon [1]; 30 g/ha) | Pre-emergent Herbicidal Activity: Amaranthus (Amaranthus; 15 g/ha) | Pre-emergent Herbicidal Activity: Amaranthus (Amaranthus; 30 g/ha) | Pre-emergence herbicidal action: Echinochloa (Echinochloa) | Pre-emergence herbicidal action: Abutilon (Abutilon [1]) | Pre-emergence herbicidal action: Amaranthus (Amaranthus) | Pre-emergence herbicidal action: Digitaria (Digitaria [3]) | Pre-emergence herbicidal action: Panicum (Panicum [4]) | Pre-emergence herbicidal action: Chenopodium (Chenopodium [5]) | Pre-emergence herbicidal action: Stellaria (Stellaria [6]) | Post-emergence herbicidal action: Chenopodium (Chenopodium [7]) | Post-emergence herbicidal action: Ipomea (Ipomea) | Post-emergence herbicidal action: Setaria (Setaria [8]) | Post-emergence herbicidal action: Abutilon (Abutilon [9]) | Post-emergence herbicidal action: Sinapis (Sinapis) | Post-emergence herbicidal action: Digitaria (Digitaria [10]) | Post-emergence herbicidal action: Panicum (Panicum [11]) | Post-emergence herbicidal action: Stellaria (Stellaria [12]) | other results
COCCc1nc(C(F)(F)F)ccc1C(=O)C1C(=O)C2CCC(C2)C1=O (stereo not drawn) [A] | 9 | 9 | 9 | 7 | 7 | – | – | – | – | – | – | – | – | – | – | – | – | – | – | – | Pre-emergent Herbicidal Activity: Echinochloa (Echinochloa; 15 g/ha): 4; Pre-emergent Herbicidal Activity: Corn (Corn; 15 g/ha): 0; Pre-emergent Herbicidal Activity: Corn (Corn; 30 g/ha): 0; Pre-emergent Herbicidal Activity: Soya (Soya; 15 g/ha): 2; Pre-emergent Herbicidal Activity: Soya (Soya; 30 g/ha): 5; Pre-emergent Herbicidal Activity: Setaria (Setaria [2]; 15 g/ha): 6; Pre-emergent Herbicidal Activity: Setaria (Setaria [2]; 30 g/ha): 7; Pre-emergent Herbicidal Activity: Brachiaria (Brachiaria; 15 g/ha): 6; Pre-emergent Herbicidal Activity: Brachiaria (Brachiaria; 30 g/ha): 7
COCc1nc(C(F)(F)F)ccc1C(=O)C1C(=O)C2CCC(C2)C1=O (stereo not drawn) [B] | 10 | 8 | 9 | 6 | 8 | – | – | – | – | – | – | – | – | – | – | – | – | – | – | – | Pre-emergent Herbicidal Activity: Echinochloa (Echinochloa; 15 g/ha): 9; Pre-emergent Herbicidal Activity: Corn (Corn; 15 g/ha): 1; Pre-emergent Herbicidal Activity: Corn (Corn; 30 g/ha): 1; Pre-emergent Herbicidal Activity: Soya (Soya; 15 g/ha): 6; Pre-emergent Herbicidal Activity: Soya (Soya; 30 g/ha): 8; Pre-emergent Herbicidal Activity: Setaria (Setaria [2]; 15 g/ha): 8; Pre-emergent Herbicidal Activity: Setaria (Setaria [2]; 30 g/ha): 9; Pre-emergent Herbicidal Activity: Brachiaria (Brachiaria; 15 g/ha): 6; Pre-emergent Herbicidal Activity: Brachiaria (Brachiaria; 30 g/ha): 9
COC/C=C\c1nc(C(F)(F)F)ccc1C(=O)C1C(=O)C2CCC(C2)C1=O (stereo not drawn) [C] | 3 | 3 | 4 | 3 | 5 | – | – | – | – | – | – | – | – | – | – | – | – | – | – | – | Pre-emergent Herbicidal Activity: Echinochloa (Echinochloa; 15 g/ha): 3; Pre-emergent Herbicidal Activity: Corn (Corn; 15 g/ha): 0; Pre-emergent Herbicidal Activity: Corn (Corn; 30 g/ha): 0; Pre-emergent Herbicidal Activity: Soya (Soya; 15 g/ha): 0; Pre-emergent Herbicidal Activity: Soya (Soya; 30 g/ha): 0; Pre-emergent Herbicidal Activity: Setaria (Setaria [2]; 15 g/ha): 2; Pre-emergent Herbicidal Activity: Setaria (Setaria [2]; 30 g/ha): 2; Pre-emergent Herbicidal Activity: Brachiaria (Brachiaria; 15 g/ha): 0; Pre-emergent Herbicidal Activity: Brachiaria (Brachiaria; 30 g/ha): 0
COCCCCc1nc(C(F)(F)F)ccc1C(=O)C1C(=O)C2CCC(C2)C1=O (stereo not drawn) [Compound F] | 7 | 8 | 8 | 7 | 7 | – | – | – | – | – | – | – | – | – | – | – | – | – | – | – | Pre-emergent Herbicidal Activity: Corn (Corn; 15 g/ha): 0; Pre-emergent Herbicidal Activity: Corn (Corn; 30 g/ha): 0; phytotoxic effect on the crop plants (corn) (Corn; [13]): no phytotoxic effect; Pre-emergent Herbicidal Activity: Soya (Soya; 15 g/ha): 0; Pre-emergent Herbicidal Activity: Soya (Soya; 30 g/ha): 0; phytotoxic effect on the crop plants (soya) (Soya; [13]): no phytotoxic effect; Pre-emergent Herbicidal Activity: Setaria (Setaria [2]; 30 g/ha): 6; Pre-emergent Herbicidal Activity: Brachiaria (Brachiaria; 15 g/ha): 0; Pre-emergent Herbicidal Activity: Brachiaria (Brachiaria; 30 g/ha): 6
COCCCc1nc(C(F)F)ccc1C(=O)C1C(=O)C2CCC(C)(C2)C1=O (stereo not drawn) [Compound H-1] | – | – | – | – | – | 9 | 9 | 9 | 9 | 9 | 10 | 7 | 8 | 9 | 8 | 9 | 8 | 9 | 9 | 8 | –
COCCCc1nc(C(F)F)ccc1C(=O)C1C(=O)C2CCC(CC2)C1=O (stereo not drawn) [Compound H-4] | – | – | – | – | – | 9 | 9 | 9 | 9 | 9 | 9 | 7 | 7 | 7 | 7 | 8 | 9 | 9 | 9 | 8 | –
CCOCCCc1nc(C(F)(F)F)ccc1C(=O)C1C(=O)C2CCC(C2)C1=O (stereo not drawn) [Compound H-15] | – | – | – | – | – | 10 | 10 | 10 | 9 | 10 | 10 | 10 | 10 | 8 | 8 | 9 | 9 | 8 | 9 | 9 | –
COCCCc1nc(C(F)(F)F)ccc1C(=O)C1C(=O)C2CCC(C)(C2)C1=O (stereo not drawn) [Compound H-16] | – | – | – | – | – | 10 | 10 | 8 | 10 | 10 | 9 | 8 | 10 | 9 | 10 | 9 | 10 | 9 | 10 | 10 | –
CCC12CCC(C1)C(=O)C(C(=O)c1ccc(C(F)(F)F)nc1CCCOC)C2=O (stereo not drawn) [Compound H-17] | – | – | – | – | – | – | – | – | – | – | – | – | 8 | 7 | 8 | 9 | 9 | 7 | 8 | 9 | –
COCCCc1nc(C(F)(F)F)ccc1C(=O)C1C(=O)C2CCCC(C2)C1=O (stereo not drawn) [Compound H-19] | – | – | – | – | – | – | – | – | – | – | – | – | 9 | 8 | 8 | 8 | 9 | 9 | 8 | 8 | –
COCCCc1nc(C(F)F)ccc1C(=O)C1C(=O)C2CCCC(C2)C1=O (stereo not drawn) [Compound H-21] | – | – | – | – | – | 9 | 7 | 7 | 10 | 10 | 10 | 10 | 9 | 8 | 8 | 8 | 9 | 9 | 9 | 8 | –
